In ChEMBL document CHEMBL1201861, “Genomics of Drug Sensitity in Cancer screening data, Wellcome Trust Sanger Institute”:
Values joined by “and” are separate entries in the source; they are usually repeats but may differ in a detail not shown here. Equal values may be shown once.

What was measured:
Assay in all cases: cells
Capan-2 = type: functional, cell-based, Homo sapiens;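 note: Capan-2 cell growth inhibition, read out with a viability assay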
Description: SANGER: Inhibition of human Capan-2 cell growth in a cell viability assay.

Detroit 562 = type: functional, cell-based, Homo sapiens;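 note: growth inhibition of human Detroit 562 cells, read out by a cell viability assay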
Description: SANGER: Inhibition of human Detroit562 cell growth in a cell viability assay.

ES3 = type: functional, cell-based, Homo sapiens;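 note: growth inhibition of ES3 cells, read out with a cell viability assay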
Description: SANGER: Inhibition of human ES3 cell growth in a cell viability assay.

ES5 = type: functional, cell-based, Homo sapiens;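 note: growth inhibition of human ES5 cells, read out by a cell viability assay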
Description: SANGER: Inhibition of human ES5 cell growth in a cell viability assay.

FTC-133 = type: functional, cell-based, Homo sapiens
GAK = type: functional, cell-based, Homo sapiens;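 note: cell growth inhibition read out by a cell viability assay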
Description: SANGER: Inhibition of human GAK cell growth in a cell viability assay.

JAR = type: functional, cell-based, Homo sapiens;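 note: growth inhibition of human JAR cells determined with a cell viability assay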
Description: SANGER: Inhibition of human JAR cell growth in a cell viability assay.

KALS-1 = type: functional, cell-based, Homo sapiens;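 note: growth inhibition of KALS-1 cells, determined with a cell viability assay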
Description: SANGER: Inhibition of human KALS-1 cell growth in a cell viability assay.

KE-37 = type: functional, cell-based; settings: Homo sapiens;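 note: growth inhibition of KE-37 cells, read out with a cell viability assay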
Description: SANGER: Inhibition of human KE-37 cell growth in a cell viability assay.

KG-1 = type: functional, cell-based; settings: Homo sapiens;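 note: growth inhibition of KG-1 cells, read out by a cell viability assay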
Description: SANGER: Inhibition of human KG-1 cell growth in a cell viability assay.

KGN = type: functional, cell-based, Homo sapiens;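 note: growth inhibition of KGN cells, read out with a cell viability assay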
Description: SANGER: Inhibition of human KGN cell growth in a cell viability assay.

KOSC-2 = type: functional, cell-based, Homo sapiens;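 note: growth inhibition of KOSC-2 cells, read out by a cell viability assay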
Description: SANGER: Inhibition of human KOSC-2 cell growth in a cell viability assay.

KS-1 = type: functional, cell-based, Homo sapiens;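 note: growth inhibition of KS-1 cells, read out with a cell viability assay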
Description: SANGER: Inhibition of human KS-1 cell growth in a cell viability assay.

KY821 = type: functional, cell-based; settings: Homo sapiens;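 note: growth inhibition of human KY821 cells, read out by a cell viability assay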
Description: SANGER: Inhibition of human KY821 cell growth in a cell viability assay.

LB771-HNC = type: functional, cell-based, Homo sapiens;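 note: growth inhibition of LB771-HNC human cells, read out with a cell viability assay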
Description: SANGER: Inhibition of human LB771-HNC cell growth in a cell viability assay.

LNCaP-Clone-FGC = type: functional, cell-based, Homo sapiens
Description: SANGER: Inhibition of human LNCaP-Clone-FGC cell growth in a cell viability assay.

LS-123 = type: functional, cell-based, Homo sapiens
Description: SANGER: Inhibition of human LS-123 cell growth in a cell viability assay.

MDA-MB-361 = type: functional, cell-based, Homo sapiens
MDA-MB-453 = type: functional, cell-based, Homo sapiens
Description: SANGER: Inhibition of human MDA-MB-453 cell growth in a cell viability assay.

MKN-28 = type: functional, cell-based, Homo sapiens;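 note: cell viability assay read-out, IC50 reflects suppression of growth of human MKN-28 cells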
Description: SANGER: Inhibition of human MKN28 cell growth in a cell viability assay.

MZ7-mel = type: functional, cell-based, Homo sapiens;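 note: growth inhibition of human MZ7-mel cells, measured by a cell viability assay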
Description: SANGER: Inhibition of human MZ7-mel cell growth in a cell viability assay.

NCI-H2170 = type: functional, cell-based, Homo sapiens;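 note: cell viability assay measuring growth inhibition of human NCI-H2170 cancer cells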
Description: SANGER: Inhibition of human NCI-H2170 cell growth in a cell viability assay.

NCI-H23 = type: functional, cell-based, Homo sapiens;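 note: cell viability assay measuring growth inhibition of NCI-H23 cells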
Description: SANGER: Inhibition of human NCI-H23 cell growth in a cell viability assay.

NCI-H747 = type: functional, cell-based; settings: Homo sapiens;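 note: growth inhibition of human NCI-H747 cells, read out by a cell viability assay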
Description: SANGER: Inhibition of human NCI-H747 cell growth in a cell viability assay.

NKM-1 = type: functional, cell-based; settings: Homo sapiens;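 note: growth inhibition of NKM-1 cells, read out with a cell viability assay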
Description: SANGER: Inhibition of human NKM-1 cell growth in a cell viability assay.

NOMO-1 = type: functional, cell-based; settings: Homo sapiens;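 note: growth inhibition of human NOMO-1 cells measured by a cell viability assay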
Description: SANGER: Inhibition of human NOMO-1 cell growth in a cell viability assay.

ONS-76 = type: functional, cell-based, Homo sapiens;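 note: growth inhibition of human ONS-76 cells, read out with a cell viability assay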
Description: SANGER: Inhibition of human ONS-76 cell growth in a cell viability assay.

P12-Ichikawa = type: functional, cell-based; settings: Homo sapiens
PC-14 = type: functional, cell-based, Homo sapiens;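 note: cell viability assay measuring inhibition of PC-14 cell growth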
Description: SANGER: Inhibition of human PC-14 cell growth in a cell viability assay.

RH-1 = type: functional, cell-based, Homo sapiens;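 note: growth inhibition of human RH-1 cells, read out with a cell viability assay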
Description: SANGER: Inhibition of human RH-1 cell growth in a cell viability assay.

RKO = type: functional, cell-based, Homo sapiens;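 note: growth inhibition of human RKO cells, read out with a cell viability assay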
Description: SANGER: Inhibition of human RKO cell growth in a cell viability assay.

RPMI-7951 = type: functional, cell-based, Homo sapiens
Description: SANGER: Inhibition of human RPMI-7951 cell growth in a cell viability assay.

RT-112 = type: functional, cell-based, Homo sapiens
Description: SANGER: Inhibition of human RT-112 cell growth in a cell viability assay.

RXF 393 = type: functional, cell-based; settings: Homo sapiens;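 note: growth inhibition of human RXF 393 cells, read out with a cell viability assay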
Description: SANGER: Inhibition of human RXF393 cell growth in a cell viability assay.

SAS = type: functional, cell-based, Homo sapiens;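 note: growth inhibition of SAS cells, read out with a cell viability assay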
Description: SANGER: Inhibition of human SAS cell growth in a cell viability assay.

SCC-25 = type: functional, cell-based, Homo sapiens;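 note: growth inhibition of SCC-25 cells, measured with a cell viability assay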
Description: SANGER: Inhibition of human SCC-25 cell growth in a cell viability assay.

SCC-9 = type: functional, cell-based, Homo sapiens;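 note: Read-out is a cell viability assay, with values giving inhibition of cell growth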
Description: SANGER: Inhibition of human SCC-9 cell growth in a cell viability assay.

SF-268 = type: functional, cell-based, Homo sapiens;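 note: growth inhibition of SF-268 cells determined with a cell viability assay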
Description: SANGER: Inhibition of human SF268 cell growth in a cell viability assay.

SW780 = type: functional, cell-based, Homo sapiens;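 note: growth inhibition of the cells, read out with a cell viability assay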
Description: SANGER: Inhibition of human SW780 cell growth in a cell viability assay.

T47D = type: functional, cell-based, Homo sapiens;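 note: growth inhibition of human T47D cells, measured with a cell viability assay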
Description: SANGER: Inhibition of human T47D cell growth in a cell viability assay.

AM-38 = type: functional, cell-based, Homo sapiens;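 note: growth inhibition of AM-38 cells of human origin, read out by a cell viability assay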
Description: SANGER: Inhibition of human AM-38 cell growth in a cell viability assay.

BHT-101 = type: functional, cell-based, Homo sapiens
Description: SANGER: Inhibition of human BHT-101 cell growth in a cell viability assay.

BHY = type: functional, cell-based, Homo sapiens;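 note: cell growth inhibition read out by a viability assay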
Description: SANGER: Inhibition of human BHY cell growth in a cell viability assay.

CAL-85-1 = type: functional, cell-based; settings: Homo sapiens;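 note: growth inhibition of human CAL-85-1 cells, read out with a cell viability assay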
Description: SANGER: Inhibition of human CAL-85-1 cell growth in a cell viability assay.

TE-10 = type: functional, cell-based, Homo sapiens;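 note: growth inhibition of TE-10 cells, measured by a cell viability assay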
Description: SANGER: Inhibition of human TE-10 cell growth in a cell viability assay.

VMRC-RCZ = type: functional, cell-based; settings: Homo sapiens;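 note: growth inhibition measured with a cell viability assay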
Description: SANGER: Inhibition of human VMRC-RCZ cell growth in a cell viability assay.

CAS-1 = type: functional, cell-based, Homo sapiens;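 note: growth inhibition of CAS-1 cells, measured with a cell viability assay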
Description: SANGER: Inhibition of human CAS-1 cell growth in a cell viability assay.

COLO-678 = type: functional, cell-based, Homo sapiens
Description: SANGER: Inhibition of human COLO-678 cell growth in a cell viability assay.

K5 = type: functional, cell-based, Homo sapiens
Description: SANGER: Inhibition of human K5 cell growth in a cell viability assay.

MKN-45 = type: functional, cell-based, Homo sapiens;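 note: growth inhibition of human MKN-45 cells, measured with a cell viability assay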
Description: SANGER: Inhibition of human MKN45 cell growth in a cell viability assay.

NCI-H510A = type: functional, cell-based; settings: Homo sapiens;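 note: growth inhibition of NCI-H510A cells, read out with a cell viability assay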
Description: SANGER: Inhibition of human NCI-H510A cell growth in a cell viability assay.

A 172 = type: functional, cell-based, Homo sapiens; settings: a 172;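 note: growth inhibition of A172 cells, measured with a cell viability readout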
Description: SANGER: Inhibition of human A172 cell growth in a cell viability assay.

**Q.** `COc1cc(F)c(F)c(Nc2ccc(I)cc2F)c1NS(=O)(=O)C1(CC(O)CO)CC1` (stereo not drawn) was tested. Which IC50 (Capan-2; Homo sapiens, Capan-2) did it give?
**A.** > 5 µM

**Q.** What about the IC50 (Detroit 562; Homo sapiens, Detroit 562) of the same compound?
**A.** > 5 µM

**Q.** What about the IC50 (ES3; Homo sapiens, ES3) of the same compound?
**A.** > 5 µM

**Q.** What about the IC50 (ES5; Homo sapiens, ES5) of the same compound?
**A.** > 5 µM

**Q.** And the IC50 (FTC-133; Homo sapiens, FTC-133)?
**A.** 4.55 µM

**Q.** And the IC50 (GAK; Homo sapiens, GAK)?
**A.** 0.565 µM

**Q.** And the IC50 (JAR; Homo sapiens, JAR)?
**A.** > 5 µM

**Q.** What about the IC50 (KALS-1; Homo sapiens, KALS-1) of the same compound?
**A.** > 5 µM

**Q.** What about the IC50 (KE-37) of the same compound?
**A.** > 5 µM

**Q.** What about the IC50 (KG-1) of the same compound?
**A.** > 5 µM

**Q.** What about the IC50 (KGN; Homo sapiens, KGN) of the same compound?
**A.** 2.8 µM

**Q.** And the IC50 (KOSC-2; Homo sapiens, KOSC-2)?
**A.** 1.68 µM

**Q.** And the IC50 (KS-1; Homo sapiens, KS-1)?
**A.** 1.26 µM

**Q.** What about the IC50 (KY821) of the same compound?
**A.** 0.107 µM

**Q.** What about the IC50 (LB771-HNC; Homo sapiens, LB771-HNC) of the same compound?
**A.** > 5 µM

**Q.** What about the IC50 (LNCaP-Clone-FGC; Homo sapiens, LNCaP-Clone-FGC) of the same compound?
**A.** > 5 µM

**Q.** And the IC50 (LS-123; Homo sapiens, LS-123)?
**A.** 2.51 µM

**Q.** And the IC50 (MDA-MB-361; Homo sapiens, MDA-MB-361)?
**A.** > 5 µM

**Q.** What about the IC50 (MDA-MB-453; Homo sapiens, MDA-MB-453) of the same compound?
**A.** > 5 µM

**Q.** And the IC50 (MKN-28; Homo sapiens, MKN-28)?
**A.** > 5 µM

**Q.** And the IC50 (MZ7-mel; Homo sapiens, MZ7-mel)?
**A.** 0.375 µM

**Q.** And the IC50 (NCI-H2170; Homo sapiens, NCI-H2170)?
**A.** > 5 µM

**Q.** And the IC50 (NCI-H23; Homo sapiens, NCI-H23)?
**A.** > 5 µM

**Q.** And the IC50 (NCI-H747)?
**A.** 0.657 µM

**Q.** What about the IC50 (NKM-1) of the same compound?
**A.** 2.43 µM

**Q.** And the IC50 (NOMO-1)?
**A.** 0.137 µM

**Q.** And the IC50 (ONS-76; Homo sapiens, ONS-76)?
**A.** 0.5 µM

**Q.** And the IC50 (P12-Ichikawa)?
**A.** 1.78 µM

**Q.** What about the IC50 (PC-14; Homo sapiens, PC-14) of the same compound?
**A.** 4.17 µM

**Q.** What about the IC50 (RH-1; Homo sapiens, RH-1) of the same compound?
**A.** > 5 µM

**Q.** What about the IC50 (RKO; Homo sapiens, RKO) of the same compound?
**A.** 1.39 µM

**Q.** And the IC50 (RPMI-7951; Homo sapiens, RPMI-7951)?
**A.** 0.761 µM

**Q.** And the IC50 (RT-112; Homo sapiens, RT-112)?
**A.** 1.59 µM

**Q.** And the IC50 (RXF 393)?
**A.** 1.45 µM

**Q.** What about the IC50 (SAS; Homo sapiens, SAS) of the same compound?
**A.** 3.94 µM

**Q.** What about the IC50 (SCC-25; Homo sapiens, SCC-25) of the same compound?
**A.** 0.49 µM

**Q.** What about the IC50 (SCC-9; Homo sapiens, SCC-9) of the same compound?
**A.** > 5 µM

**Q.** And the IC50 (SF-268; Homo sapiens, SF-268)?
**A.** > 5 µM

**Q.** What about the IC50 (SW780; Homo sapiens, SW780) of the same compound?
**A.** 0.758 µM

**Q.** And the IC50 (T47D; Homo sapiens, T47D)?
**A.** > 5 µM

**Q.** And the IC50 (AM-38; Homo sapiens, AM-38)?
**A.** > 5 µM

**Q.** What about the IC50 (BHT-101; Homo sapiens, BHT-101) of the same compound?
**A.** 0.106 µM

**Q.** And the IC50 (BHY; Homo sapiens, BHY)?
**A.** 3.29 µM

**Q.** What about the IC50 (CAL-85-1) of the same compound?
**A.** 3.57 µM

**Q.** And the IC50 (TE-10; Homo sapiens, TE-10)?
**A.** > 5 µM

**Q.** What about the IC50 (VMRC-RCZ) of the same compound?
**A.** > 5 µM

**Q.** What about the IC50 (CAS-1; Homo sapiens, CAS-1) of the same compound?
**A.** > 5 µM

**Q.** What about the IC50 (COLO-678; Homo sapiens, COLO-678) of the same compound?
**A.** 2.11 µM

**Q.** Which results are given for `Cc1cc([C@@H](C)Nc2ccccc2C(=O)O)c2nc(N3CCOCC3)cc(=O)n2c1` [AZD-6482]?
**A.** IC50 (Capan-2; capan-2): > 5.12 µM; IC50 (Detroit 562; detroit 562): 1.05 µM and 2.13 µM; IC50 (ES3; Homo sapiens, ES3): > 5.12 µM; IC50 (ES3; es3): > 5.12 µM; IC50 (ES5; es5): > 5.12 µM; IC50 (FTC-133; ftc-133): > 5.12 µM; IC50 (GAK; gak): > 5.12 µM; IC50 (JAR; jar): > 5.12 µM; IC50 (K5; Homo sapiens, K5): > 5.12 µM; IC50 (K5; k5): > 5.12 µM; IC50 (KALS-1; Homo sapiens, KALS-1): 4.35 µM; IC50 (KALS-1; kals-1): > 5.12 µM; IC50 (KE-37): > 5.12 µM; IC50 (KG-1): > 5.12 µM; IC50 (KGN; kgn): 4.32 µM and > 5.12 µM; IC50 (KOSC-2; kosc-2): > 5.12 µM; IC50 (KS-1; Homo sapiens, KS-1): > 5.12 µM; IC50 (KS-1; ks-1): > 5.12 µM; IC50 (KY821): > 5.12 µM; IC50 (LB771-HNC; Homo sapiens, LB771-HNC): > 5.12 µM; IC50 (LB771-HNC; lb771-hnc): > 5.12 µM; IC50 (LNCaP-Clone-FGC; Homo sapiens, LNCaP-Clone-FGC): 1.52 µM; IC50 (LNCaP-Clone-FGC; lncap-clone-fgc): 2.41 µM; IC50 (LS-123; ls-123): > 5.12 µM; IC50 (MDA-MB-361; Homo sapiens, MDA-MB-361): 3.53 µM; IC50 (MDA-MB-361; mda-mb-361): > 5.12 µM; IC50 (MDA-MB-453; mda-mb-453): > 5.12 µM and 2.33 µM; IC50 (MKN-28; mkn-28): > 5.12 µM; IC50 (MKN-45; Homo sapiens, MKN-45): > 5.12 µM; IC50 (MKN-45; mkn-45): > 5.12 µM; IC50 (MZ7-mel; Homo sapiens, MZ7-mel): > 5.12 µM; IC50 (MZ7-mel; mz7-mel): > 5.12 µM; IC50 (NCI-H2170; nci-h2170): > 5.12 µM; IC50 (NCI-H23; nci-h23): > 5.12 µM; IC50 (NCI-H510A): > 5.12 µM; IC50 (NCI-H747): > 5.12 µM; IC50 (NKM-1): 1.29 µM; IC50 (NOMO-1): 3.32 µM; IC50 (ONS-76; ons-76): > 5.12 µM; IC50 (P12-Ichikawa): > 5.12 µM; IC50 (PC-14; pc-14): > 5.12 µM; IC50 (RH-1; rh-1): > 5.12 µM; IC50 (RKO; Homo sapiens, RKO): 3.06 µM; IC50 (RKO; rko): 3.19 µM; IC50 (RPMI-7951; Homo sapiens, RPMI-7951): > 5.12 µM; IC50 (RPMI-7951; rpmi-7951): > 5.12 µM; IC50 (RT-112; Homo sapiens, RT-112): > 5.12 µM; IC50 (RT-112; rt-112): > 5.12 µM; IC50 (SAS; sas): > 5.12 µM; IC50 (SCC-25; scc-25): > 5.12 µM and 4.74 µM; IC50 (SCC-9; Homo sapiens, SCC-9): 0.858 µM; IC50 (SCC-9; scc-9): 0.904 µM; IC50 (SF-268; sf-268): > 5.12 µM; IC50 (SW780; sw780): > 5.12 µM; IC50 (T47D; Homo sapiens, T47D): 0.533 µM; IC50 (T47D; t47d): 0.938 µM; IC50 (A 172): > 5.12 µM; IC50 (AM-38; am-38): > 5.12 µM; IC50 (BHT-101; bht-101): > 5.12 µM and 1.16 µM; IC50 (BHY; bhy): > 5.12 µM; IC50 (CAL-85-1): 2.28 µM; IC50 (TE-10; te-10): > 5.12 µM; IC50 (CAS-1; Homo sapiens, CAS-1): > 5.12 µM; IC50 (CAS-1; cas-1): > 5.12 µM; IC50 (COLO-678; colo-678): > 5.12 µM
